Data on two compounds can be found in patent EP0617046A1, “Nucleoside derivatives and antiherpes composition” (NIPPON CHEMIPHAR CO., LTD., priority 1993, dated 1994).

≈ marks a conversion by molar mass, not a printed value.

The subject of data set [1] is cytomegalovirus (CMV). The settings on record: CMV having no thymidine kinase (TK); Clinic and Study, vol. 70, No.8 (1993); cited from earlier work.
In data set [2] the test system is herpes simplex virus (HSV) type 1. Particulars: cited from earlier work.
Data set [3] deals with herpes simplex virus (HSV) type 2. Particulars: cited from earlier work.
For data set [4], the system named is TK⁺VZV OKA strain. Briefly: Assay for antiviral activity (plaque formation in HEL cells). The data set is classed as cell-based, Varicella-zoster virus (VZV). Particulars: Human alphaherpesvirus 3, HEL, 120 h, read-out: Antiviral Activity IC₅₀ (µg/mL). As for the experimental part:
(§1) The nucleoside derivative of the invention is further examined in antivairal activity to varicella-zoster virus (VZV) and cytotoxicity by the following tests.
(§2) Human embryonic lung fibroblast (HEL cell, ATCC CCL-137)
(§3) Culture: The cell is cultured in a minimum essential medium (MEM, Gibco) supplemented with 10% inactivated bovine fetal serum, 1% L-glutamine, and 0.3% sodium hydrogen carbonate.
(§4) • (a) Thymidine kinase-positive (TK⁺) strain OKA & YS • (b) Thymidine kinase-deficient (TK⁻) strain YS/R & 07/1
(§5) Cells cultured on a 96-well microtiter plate are inoculated with the virus at an input of 20 plaque formation units (PFU). The cultured cells are incubated at 37°C for 2 hours. Subsequently, remaining virus is removed, and the incubated cells are again cultured in a MEM medium to which are added the test compound, 10% inactivated bovine fetal serum, 1% L-glutamine, and 0.3% sodium hydrogen carbonate in duplicate. After five days culture, the microtiter plate is fixed by ethanol, stained by Giemsa staining method, and microscopically observed for measurement of number of plaques formed. The results are indicated by IC₅₀ (i.e., concentration at which the plaque formation by virus is inhibited by 50%.

For data set [5], the system named is TK⁻VZV YS/R strain. Described as above. Particulars: Human alphaherpesvirus 3, HEL, 120 h, read-out: Antiviral Activity IC₅₀ (µg/mL). Format: cell-based, Varicella-zoster virus (VZV). As for the experimental part: as §1, §2, §3, §4, §5
For data set [6], the system named is TK⁺VZV YS strain. The description is as above. Format: cell-based, Varicella-zoster virus (VZV). The settings on record: Human alphaherpesvirus 3, HEL, 120 h, read-out: Antiviral Activity IC₅₀ (µg/mL). As for the experimental part: as §1, §2, §3, §4, §5
Data set [7] concerns TK⁻VZV 07/1 strain. The description is as above. Particulars: Human alphaherpesvirus 3, HEL, 120 h, read-out: Antiviral Activity IC₅₀ (µg/mL). Format: cell-based, Varicella-zoster virus (VZV). The procedure:
as §1, §2, §3, §4, §5

Data set [8] is described as follows: Assay for cytotoxicity (cell growth, Coulter Counter). Format: cell-based. Particulars: human; HEL cells; 3 days incubation; cell growth inhibited by 50%; read-out: Cytotoxicity CC₅₀. The procedure:
as §2, §3
HEL cellls of 3 x 10³ cells/well are seeded into a 96 well microtiter plate and allowed to proliferate in a MEM medium containing 10% inactivated bovine fetal serum at 37°C for 24 hours. Subsequently, the medium is changed into a MEM medium containing different concentrations of the tested compound, and then the incubation is continued for another 3 days. When monolayer cells are grown to 70%, number of cells is countered by Coulter Counter. The cytotoxicity is indicated by CC₅₀ (i.e., concentration at which the cell growth is inhibited by 50%.).

For `Nc1nc2c(ncn2COCCO)c(=O)[nH]1` [Acyclovir], the “effectiveness to cytomegalovirus (CMV)” value in data set [1] is recorded as “not effective”. For the same compound, the “concentration showing inhibitory effect” value in data set [2] and in data set [3] was “less than 0.05 µL/mL” in each case.

With `Nc1ncnc2c1ncn2[C@@H]1O[C@H](COC2(c3ccccc3)c3ccccc3Oc3ccccc32)[C@@H](OC2(c3ccccc3)c3ccccc3Oc3ccccc32)[C@H]1OC1CCCCO1` (some centres unmarked) [Example 2, 2'-O-Tetrahydropyranyl-3',5'-O-di(9-phenylxanthenyl)adenosine], the IC50 was found to be 2 µg/mL (≈ 2.31 µM) in data set [4], 2 µg/mL (≈ 2.31 µM) in data set [5], 1 µg/mL (≈ 1.16 µM) in data set [6] and 0.8 µg/mL (≈ 0.926 µM) in data set [7]. The CC50 at 72 h in data set [8] is more than 50 µg/mL.
